The values that follow come from PubChem BioAssay (NCI).

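96-well plates; 48 h exposure; 5 concentrations. Endpoints by linear interpolation between flanking doses. Not reached: highest tested concentration assigned. At the GI50, growth is halved. TGI is the concentration that stops growth completely.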 Bounds are passed on as bounds.

Assay in all cases: inhibition of tumour cell growth, NCI panel, 48 h
Test [1] has as its system MDA-MB-435.
In test [2] the test system is HS 578T breast.
Test [3] relates to DMS 114 small cell lung.
Test [4] deals with SNB-78 CNS.
Test [5] has as its system XF 498 CNS.
For test [6], the system named is LXFL 529 NSCLC.
The subject of test [7] is DLD-1 colon.
The test system of test [8] is MDA-N.

For `O=C(O)Cn1ccc2ccccc21`, the GI50 in test [1] and in test [2] was above 100 µM each time. Moreover, the TGI in test [1] and in test [2] was above 100 µM in each case.

For the compound `CCCCN1C(=O)/C(=c2\sc3n(c2=O)C2C(NN=3)N(CC)C(=O)N2CC)c2ccccc21` (stereo not given), in test [1], the GI50 was 0.255 µM and the TGI was determined as 0.655 µM. In addition, in test [2], the GI50 was 0.749 µM and the TGI was 6.04 µM.

On to `CC(C)(C)c1nc(-c2cccc(NS(=O)(=O)c3c(F)cccc3F)c2F)c(-c2ccnc(N)n2)s1`, for which, in test [1], the GI50 is below 0.01 µM and the TGI is above 100 µM. Also, in test [2], the GI50 was 61.1 µM and the TGI is above 100 µM.

For the compound `O=C1Nc2ccccc2/C1=C/c1cn(CC(O)Cn2cc(/C=C3\C(=O)Nc4ccccc43)c3ccccc32)c2ccccc12` (stereo not given), in test [1], the GI50 is 1.81 µM and the TGI came to 3.46 µM. Moreover, in test [2], the GI50 is 2.43 µM and the TGI is 7.85 µM.

For `COc1ccc(-c2nn3ncccc3c2-c2ccnc(Nc3ccc4c(c3)OCCO4)n2)cc1`, in test [1], the GI50 is 12.5 µM and the TGI is above 25 µM. In addition, in test [2], the GI50 is 10.2 µM and the TGI is above 25 µM.

As to `NC(CSC(c1ccccc1)(c1ccccc1)c1ccc(F)cc1)C(=O)O` (stereo not given), in test [1], the GI50 is 0.251 µM and the TGI was found to be 0.654 µM. Besides, in test [2], the GI50 was 0.239 µM and the TGI was determined as 0.841 µM.

In the case of `CCCCCCCCCCOC(=O)c1cc[n+](C)cc1`, the TGI was found to be 33.1 µM in test [3]; 34.4 µM in test [4]; 31.4 µM in test [5]; 29.8 µM in test [6]; 32.5 µM in test [7].

As to `COc1cc2nc(-c3cccc4cccnc34)nc(NC3CCN(Cc4ccccc4)CC3)c2cc1OC`, in test [1], the GI50 was 1.56 µM and the TGI was determined as 3.08 µM. Further, in test [2], the GI50 is 2.07 µM and the TGI was 4.81 µM.

Turning to `Oc1c(O)c(Cl)c(Cl)c(Cl)c1Cl`, in test [1], the GI50 was 3.42 µM and the TGI came to 18.1 µM. For the same compound, in test [2], the GI50 is 3.75 µM and the TGI amounted to 23 µM.

For the compound `C=C(CN1c2ccccc2Sc2ccccc21)c1ccc(C(=O)Nc2ccccc2N)cc1`, the results for the GI50 in test [1] and in test [2] were 3.87 µM and above 100 µM, respectively. Besides, the values for the TGI in test [1] and in test [2] were 25 µM and above 100 µM, respectively.

Regarding `CCc1nn2ncccc2c1-c1ccnc(NC2CC2)n1`, in test [1], the GI50 was above 25 µM and the TGI was above 25 µM. Moreover, in test [2], the GI50 is above 18.5 µM and the TGI is above 25 µM.

On to `CC[C@@H](O)C[C@H]1CCC[C@@]2(C[C@@H]3OC(=O)/C=C/[C@@](C)(O)[C@@H](O)[C@H](C)[C@@H](O)[C@H](OC4CCC(N(C)C)C(C)O4)[C@@H](O)[C@](C)(O)CCCCC/C=C/[C@@H]4CC(C)(C)O[C@@]4(O)C[C@H](O2)[C@H]3C)O1` (stereo not given in full), for which the TGI in test [1] came to 22.2 µM; in test [2], 33.5 µM; in test [8], 20.8 µM.

For `Nc1ccc(-c2ccc3ncc4ccc(=O)n(-c5cccc(C(F)(F)F)c5)c4c3c2)cn1`, in test [1], the GI50 was below 0.01 µM and the TGI was 3.26 µM. Besides, in test [2], the GI50 is below 0.01 µM and the TGI was below 0.0253 µM.

For the compound `COc1ccc2[nH]c(C(=O)OCc3ccc4cccc(O)c4n3)cc2c1`, in test [1], the GI50 is 1.52 µM and the TGI was 3.13 µM. Moreover, in test [2], the GI50 was 1.78 µM and the TGI stood at 4.6 µM.

Consider `Cc1ccc(O)c(NC2=C(Cl)C(=O)N(Cc3ccccc3)C2=O)c1`, for which, in test [1], the GI50 was 28.4 µM and the TGI is 76.1 µM. In test [2], the GI50 was 21.2 µM and the TGI was found to be 65.3 µM.

Regarding `OC(COc1ccccc1)CN1CCCCC1` (stereo not given), the TGI in test [1], in test [2] and in test [8] was above 100 µM in each case.

As for `COc1ccc2nc3cccc([N+](=O)[O-])c3c(NCCNCCN(C)C)c2c1`, the GI50 is 0.111 µM in test [1], 0.175 µM in test [2] and 0.176 µM in test [8]. Further, the values for the TGI in test [1], in test [2] and in test [8] were 0.248 µM, 0.558 µM and 0.502 µM, respectively.

As for `CCC[CH2][Sn]([CH2]CCC)([O]C(=O)c1cccc(F)c1F)[O]C(=O)c1cccc(F)c1F`, the GI50 in test [3] was 0.291 µM; in test [5], 1.61 µM; in test [6], 0.189 µM; in test [7], 0.653 µM. Moreover, the TGI in test [5] was 2.97 µM; in test [6], 0.526 µM; in test [7] it was 1.94 µM.

Turning to `CCN(CC)c1nc(NC2CCCCC2)c2nc(N(CC)CC)nc(NC3CCCCC3)c2n1`, the TGI in test [1], in test [2] and in test [8] was above 100 µM in each case.

With `Nc1nc2c(ccc3ccccc32)s1`, the values for the GI50 in test [1] and in test [2] were 57.1 µM and above 100 µM, respectively. Besides, the TGI in test [1] and in test [2] was above 100 µM throughout.

For the compound `COc1ccc2c(c1)O/C(=C\c1cccc(OCC(=O)Nc3nc(C)c(C)s3)c1)C2=O`, in test [1], the GI50 is 7.29 µM and the TGI was above 100 µM. For the same compound, in test [2], the GI50 is 5.24 µM and the TGI is above 41.5 µM.

Regarding `C=C(CO)CC(/C=C(\C)CC/C=C(\C)CCl)OC(C)=O` (stereo not given), the TGI in test [3], in test [4], in test [5], in test [6] and in test [7] was above 100 µM each time.

On to `CC12OC(C(=O)C13CCC3)C1C(=O)c3ccc4c(ccc5ccccc54)c3C(=O)C12` (stereo not given), for which, in test [1], the GI50 is 12.8 µM and the TGI came to 30.3 µM. For the same compound, in test [2], the GI50 is 16 µM and the TGI worked out at 76.1 µM.

`O=C(/C=C\n1cnc(-c2cc(C(F)(F)F)cc(C(F)(F)F)c2)n1)N1CC(F)(F)C1`: in test [1], the GI50 is 1.4 µM and the TGI worked out at 6.38 µM. Besides, in test [2], the GI50 is 0.409 µM and the TGI came to 5.34 µM.
